According to ChEMBL document CHEMBL2150913, “Novel Benzoisoxazole as Partial Agonist of the 5-HT4 Receptor: Patent Highlight” (ACS Med Chem Lett, 2012):

How the values were obtained:
[1] = Cytotoxicity against human THLE cells assessed as cell health and cell depletion; format: cell-based
[2] = tested on: Brain; assay: AUC in rat brain at 5 mg/kg, sc; format: ADME, organism-based; set-up: dose 5 mg/kg, route subcutaneous; details: in vivo
[3] = tested on: Plasma; assay: AUC in rat plasma at 5 mg/kg, sc; format: ADME, organism-based; set-up: dose 5 mg/kg, route subcutaneous; details: in vivo

`OC1(CN2CCC(COc3noc4cccc(O[C@@H]5CCOC5)c34)CC2)CCOCC1` [PF-04995274] showed an Activity [1] of 300 µM, an AUC [2] of 1790 ng·h/g and an AUC [3] of 1760 ng·h/g.
